Patent publication US10759816B2, “Heterocyclic compounds as RSV inhibitors” (Enanta Pharmaceuticals, Inc., priority 2016, dated 2020)

The compounds below were run on genotype A, "Long" strain RSV (assay: RSV-A in vitro cytoprotection assay in HEp-2 cells (ATPlite readout of cell viability)). Settings: human respiratory syncytial virus, HEp-2, HEp-2 cells, genotype A “Long” strain RSV, cytoprotection; read-out: Human RSV-A (“Long” strain) EC50.
Type: cell-based, Human respiratory syncytial virus
Description: RSV is a single stranded negative sense RNA virus that causes respiratory tract infections which can be dangerous to infants, the elderly, and immunosuppressed individuals. Currently there is no vaccine, and therapeutic options are both costly and of limited effectiveness. These approved treatments are Ribavirin, and Palivizumab/Synagis (a monoclonal antibody). RSV has two genotypes, A and B, which differ primarily in the structure of the virus' surface “G” attachment protein. Our current primary screen focuses on RSV-A and uses an in vitro cytoprotection assay where compounds are added in 2-fold dilutions to cells which are then subjected to fully replicative viral particles. Cell viability is measured several days later along with separate measurements of compound cytotoxicity. This report focuses on the results of our most recent screening of compounds.
HEp-2 cells, (originally derived from tumors grown in irradiated-cortisonised weanling rats that had been injected with epidermoid carcinoma tissue from a person's larynx, but later found to be indistinguishable from HeLa cells by PCR DNA analysis), were used for the culturing of genotype A, “Long” strain RSV. Flasks were inoculated with RSV and viral stocks were collected once cytopathic effect (CPE) was greater than 90%. Viral stocks in 25% sucrose media were snap frozen using liquid nitrogen to increase viral stability. Viral stock titers were quantified by tissue culture infectious dose 50% (TCID50) using 8,000 cells per well and 3-fold viral dilutions across a 96-well plate, cultured for 4 days.
Following extensive parameter testing, the final assay is run as follows: HEp-2 cells are seeded into the inner 60 wells of a 96-well plate at 8,000 cells per well in a volume of 50 μL using Growth Media (DMEM without phenol red, 1% L-Glut, 1% Penn/Strep, 1% nonessential amino acids, 10% FBS). 2-Fold serial dilutions of control and test compounds are added to the wells in duplicate in a total volume of 25 μL. Viral stock is then added to the wells in a volume of 25 μL, bringing the total volume of each well to 100 μL. Each 96-well plate has a control column of 6 wells with cells and virus but no compound (negative control, max CPE), a column with cells but no compound or virus (positive control, minimum CPE), and a column with no cells or virus or compound (background plate/reagent control). The control wells with cells but no virus are given an additional 25 uL of growth media containing an equal quantity of sucrose as those wells receiving the viral stock in order to keep consistent in media and volume conditions. The outer wells of the plate are filled with 125 μL of growth media to act as a thermal and evaporative moat around the test wells. Following a 4-day incubation period, the plates are read using ATPlite (50 uL added per well), which quantifies the amount of ATP (a measure of cell health) present in each well. Assay plates are read using the Envision luminometer. In parallel, cytotoxicity is examined on an additional 96-well plate treated in an identical manner, but substituting the 25 μL of viral stock for 25 μL of growth media. […] EC50 ranges are as follows: A <0.4 μM; B 0.4-0.8 μM; C >0.8 μM.
With `O=C(NC1CC1)c1cc2c(s1)-c1ccccc1N(C(=O)c1cccc(-c3ccc(C(F)(F)F)nc3)n1)CC2` [Example 73] the EC50 was 400 to 800 nM. In the case of `COc1cc(-c2cccc(C(=O)N3CCc4cc(C(=O)NC5CC5)sc4-c4ccccc43)n2)ccn1` [Example 72], the EC50 is reported as 400 to 800 nM. In the case of `COC(C)(C)CNc1cccc(C(=O)N2CCc3cc(C(=O)Nc4c(C)cccc4F)sc3-c3ccccc32)n1` [Example 373], the EC50 is reported as under 400 nM. `CC(C)(O)c1ccc(-c2cccc(C(=O)N3CCc4cc(C(=O)NC5CC5)sc4-c4ccccc43)n2)cc1` [Example 64] showed an EC50 of 400 to 800 nM. `CC(C)(Nc1cccc(C(=O)N2CCc3cc(C(=O)NC4CC4)sc3-c3ccccc32)n1)c1ccccn1` [Example 293] gave an EC50 of over 800 nM. `COc1ccc(-c2cccc(C(=O)N3CCc4cc(C(=O)NC5CC5)sc4-c4ccccc43)n2)cn1` [Example 65] showed an EC50 of under 400 nM. For `Cc1cccc(F)c1NC(=O)c1cc2c(s1)-c1ccc(F)cc1N(C(=O)c1cccc(-c3cn[nH]c3C3CC3)n1)CC2` [Example 170], the EC50 was under 400 nM. Compound `Cc1cc(-c2ccc(C(=O)N3CCc4cc(C(=O)Nc5c(C)cccc5F)sc4-c4ccccc43)cc2)n(S(C)(=O)=O)n1` [Example 271] has an EC50 of over 800 nM. `O=C(NC1CC1)c1cc2c(s1)-c1ccccc1N(C(=O)c1cccc(-c3nncn3C3COC3)n1)CC2` [Example 128] gave an EC50 of over 800 nM. `Cc1cccc(F)c1NC(=O)c1cc2c(s1)-c1ccccc1N(C(=O)c1cccc(-c3c[nH]c4c(C)cccc34)n1)CC2` [Example 253] showed an EC50 of under 400 nM. `Cc1cccc(F)c1NC(=O)c1cc2c(s1)-c1ccccc1N(C(=O)c1cccc(N3CC4(CCS4(=O)=O)C3)n1)CC2` [Example 472] was tested, and the EC50 was over 800 nM. `Cc1cccc(F)c1NC(=O)c1cc2c(s1)-c1ccccc1N(C(=O)c1cccc(-c3c[nH]nc3N3CCOCC3)n1)CC2` [Example 211] gave an EC50 of over 800 nM. Compound `COc1cccc(Nc2cccc(C(=O)N3CCc4cc(C(=O)NC5CC5)sc4-c4ccccc43)n2)n1` [Example 409] has an EC50 of over 800 nM. With `Cc1cccc(F)c1NC(=O)c1cc2c(s1)-c1ccccc1N(C(=O)c1cccc(-c3c[nH]c4c(Cl)cccc34)n1)CC2` [Example 251] the EC50 was under 400 nM. `Cc1cccc(F)c1NC(=O)c1cc2c(s1)-c1ccccc1N(C(=O)c1cccc(N[C@@H](C)c3ccccn3)n1)CC2` [Example 340] showed an EC50 of over 800 nM. Compound `Cc1cccc(F)c1NC(=O)c1cc2c(s1)-c1ccccc1N(C(=O)c1cccc(N3CCN(S(C)(=O)=O)Cc4ccccc43)n1)CC2` [Example 379] has an EC50 of over 800 nM. `O=C(NC1CC1)c1cc2c(s1)-c1ccccc1N(C(=O)c1ccc3ccc(-c4ccncc4)nc3c1)CC2` [Example 187] gave an EC50 of over 800 nM. For `O=C(NC1CC1)c1cc2c(s1)-c1ccccc1N(C(=O)c1cccc(-c3cncc4ccccc34)n1)CC2` [Example 153], the EC50 was over 800 nM. In the case of `O=C(NC1CC1)c1cc2c(s1)-c1ccccc1N(S(=O)(=O)c1cccc(-c3ccnc(N4CCOCC4)c3)n1)CC2` [Example 103], the EC50 is reported as over 800 nM. Compound `COC[C@@H](Nc1cccc(C(=O)N2CCc3cc(C(=O)Nc4c(C)cccc4F)sc3-c3ccccc32)n1)c1ccccc1` [Example 501] has an EC50 of over 800 nM. `Cc1noc([C@H]2C[C@@H](O)CN2c2cccc(C(=O)N3CCc4cc(C(=O)Nc5c(C)cccc5F)sc4-c4ccccc43)n2)n1` [Example 496] was tested, and the EC50 was over 800 nM. With `O=C(NC1CC1)c1cc2c(s1)-c1ccccc1N(C(=O)c1cccc(-c3ccc(C(=O)N4CCOCC4)cc3)n1)CC2` [Example 68] the EC50 was 400 to 800 nM. `COc1ccc(-c2nc(C(=O)N3CCc4cc(C(=O)NC5CC5)sc4-c4ccccc43)ccc2C#N)cn1` [Example 70] was tested, and the EC50 was over 800 nM. In the case of `CCn1nccc1-c1cccc(C(=O)N2CCc3cc(C(=O)Nc4c(C)cccc4F)oc3-c3ccccc32)n1` [Example 273], the EC50 is reported as over 800 nM. Work on `Cc1cccc(F)c1NC(=O)c1cc2c(s1)-c1ccccc1N(C(=O)c1cccc(NCC3(C)CCCO3)n1)CC2` (centres unmarked) [Example 361] yielded an EC50 of over 800 nM. Work on `Cc1cccc(F)c1NC(=O)c1cc2c(s1)-c1ccccc1N(C(=O)c1cccc(N3CCC[C@@H]3c3ccccn3)n1)CC2` [Example 484] yielded an EC50 of under 400 nM. In the case of `CNC(=O)n1cc(-c2cccc(C(=O)N3CCc4cc(C(=O)Nc5c(C)cccc5F)sc4-c4ccccc43)n2)c(C2CC2)n1` [Example 217], the EC50 is reported as under 400 nM. `COc1ccc(-c2cccc(C(=O)N3CCc4cc(C(=O)Nc5ccccc5)sc4-c4ccccc43)n2)cn1` [Example 168] gave an EC50 of over 800 nM. Work on `O=C(NC1CC1)c1cc2c(s1)-c1ccccc1N(C(=O)c1ccc3ncn(C4CCOCC4)c3c1)CC2` [Example 13] yielded an EC50 of over 800 nM. For `O=C(NC1CC1)c1cc2c(s1)-c1ccccc1N(C(=O)c1ccc3ccc(-c4ccncc4)cc3n1)CC2` [Example 186], the EC50 was over 800 nM. Work on `O=C(NC1CC1)c1cc2c(o1)-c1ccccc1N(C(=O)c1cccc(N3CCCOCC3)n1)CC2` [Example 106] yielded an EC50 of 400 to 800 nM. `O=C(NCc1ccccn1)c1cc2c(s1)-c1ccccc1N(C(=O)c1cccc(N3CCOc4ccccc4C3)n1)CC2` [Example 306] gave an EC50 of under 400 nM. With `O=C(NC1CCC(F)(F)CC1)c1cc2c(s1)-c1ccccc1N(C(=O)c1cccc(-c3c[nH]nc3C3CC3)n1)CC2` [Example 175] the EC50 was under 400 nM. Work on `CC(=O)N1CCCN(c2cccc(C(=O)N3CCc4cc(C(=O)Nc5c(C)cccc5F)sc4-c4ccccc43)n2)c2ccccc21` [Example 378] yielded an EC50 of under 400 nM. With `O=C(NC1CC1)c1cc2c(s1)-c1ccccc1N(C(=O)c1cccc(-c3csc(N4CCOCC4)n3)n1)CC2` [Example 167] the EC50 was over 800 nM. `Cc1cccc(F)c1NC(=O)c1cc2c(s1)-c1ccccc1N(C(=O)c1cccc(N3CCCS(=O)(=O)c4ccccc43)n1)CC2` [Example 406] gave an EC50 of 400 to 800 nM. `Cc1cccc(F)c1NC(=O)c1cc2c(s1)-c1ccccc1N(C(=O)c1cccc(N3CCCOCC3=O)n1)CC2` [Example 401] showed an EC50 of over 800 nM. Work on `Cc1cccc(F)c1NC(=O)c1cc2c(s1)-c1ccccc1N(C(=O)c1cccc(N(C)C3CCOCC3)n1)CC2` [Example 362] yielded an EC50 of under 400 nM. Compound `Cc1cccc(F)c1NC(=O)c1cc2c(s1)-c1ccccc1N(C(=O)c1cccc(N3CCCN(S(C)(=O)=O)c4ccccc43)n1)CC2` [Example 377] has an EC50 of over 800 nM. `O=C(NC1CCOCC1)c1cc2c(s1)-c1ccccc1N(C(=O)c1cccc(-c3c[nH]nc3C3CC3)n1)CC2` [Example 180] gave an EC50 of under 400 nM. Work on `O=C(NC1CC1)c1cc2c(s1)-c1ccccc1N(C(=O)c1cccc(N3CCC4(CC3)CC4)n1)CC2` [Example 25] yielded an EC50 of 400 to 800 nM. `Cc1cccc(F)c1NC(=O)c1cc2c(s1)-c1ccccc1N(C(=O)c1cccc(N(C)C3CCS(=O)(=O)C3)n1)CC2` (centres unmarked) [Example 439] showed an EC50 of over 800 nM. Compound `O=C(NC1CC1)c1cc2c(s1)-c1ccccc1N(C(=O)c1cccc(-c3ccnc(N4CCCOCC4)c3)n1)CC2` [Example 86] has an EC50 of under 400 nM. `O=C(NC1CC1)c1cc2c(s1)-c1ccccc1N(C(=O)c1cccc(N3CC4CCC(C3)O4)n1)CC2` [Example 28] showed an EC50 of under 400 nM. `Cc1cccc(F)c1NC(=O)c1cc2c(s1)-c1ccccc1N(C(=O)c1cccc(-c3ccc4c(c3)CN(C)C4=O)n1)CC2` [Example 195] gave an EC50 of under 400 nM. `Cc1cccc(F)c1NC(=O)c1cc2c(s1)-c1ccccc1N(C(=O)c1cccc(N(C)Cc3ccccc3-c3ccccc3)n1)CC2` [Example 355] was tested, and the EC50 was over 800 nM. Compound `O=C(NC1CC1)c1cc2c(s1)-c1ccccc1N(C(=O)c1cccc(-c3nncn3C3CC3)n1)CC2` [Example 126] has an EC50 of over 800 nM. Compound `Cc1cccc(F)c1NC(=O)c1cc2c(s1)-c1ccccc1N(C(=O)c1cccc(N3CCS(=O)(=O)c4ccc(F)cc4C3)n1)CC2` [Example 436] has an EC50 of under 400 nM. `Cc1cccc(F)c1NC(=O)c1cc2c(o1)-c1ccccc1N(C(=O)c1cccc(-c3c[nH]nc3C3CC3)n1)CC2` [Example 275] was tested, and the EC50 was under 400 nM. Compound `Cc1cccc(F)c1NC(=O)c1cc2c(s1)-c1ccccc1N(C(=O)c1cccc(N3CCCN(S(C)(=O)=O)CC3)n1)CC2` [Example 384] has an EC50 of under 400 nM. `Cc1cccc(F)c1NC(=O)c1cc2c(s1)-c1ccccc1N(C(=O)c1cccc(-c3cn(CCS(C)(=O)=O)nc3C3CC3)n1)CC2` [Example 227] showed an EC50 of over 800 nM. `O=C(NC1CC1)c1cc2c(s1)-c1ccccc1N(C(=O)c1cccc(-c3cnn(C4CCOC4)c3)n1)CC2` (centres unmarked) [Example 159] gave an EC50 of over 800 nM. With `COc1ccc2c(c1)CN(c1cccc(C(=O)N3CCc4cc(C(=O)NC5CC5)sc4-c4ccccc43)n1)CCO2` [Example 280] the EC50 was under 400 nM.
